For 21 compounds, TGI and GI50 results are on record in PubChem BioAssay (NCI).

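Compound exposure: 48 hours, 5 concentrations, 96-well plates. Here, GI50 denotes the concentration required for 50% inhibition of growth. TGI: concentration producing complete growth inhibition.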

For one experiment, the system named is SF-539 CNS. Kind of experiment: NCI anticancer screen, dose series, 48 h.
As to `CC1=C(C)C(=O)c2c(cc3ccccn23)C1=O`, the TGI turned out to be 37.1 µM.
The compound `Cc1ccc(N=Cc2ccc3c(c2)OCO3)cc1C` displayed a TGI above 100 µM.
With `COC(C(=O)[O][Ge]([CH3])([CH3])[CH3])c1ccccc1` (configuration not stated), the GI50 was above 100 µM and the TGI was above 100 µM.
As for `O=C1/C(=C\c2c[nH]c3ccccc23)c2ccccc2N1c1c(Cl)cccc1Cl`, the GI50 is 1.59 µM and the TGI stood at 3.01 µM.
Take `OC(c1cc(-c2ccccc2)nc2ccc(Cl)cc12)C1CCCCN1` (configuration not stated): the GI50 is 1.84 µM and the TGI was 3.52 µM.
As for `CCN(CC)c1ccc(C(=O)c2ccccc2C(=O)O)c(O)c1`, the TGI is above 100 µM.
On the same count and under the same terms, in the case of `COc1ccc(OC)c(NC(=O)C2=C(C)NC(C)=C(C(=O)Nc3cc(OC)ccc3OC)C2c2ccccc2)c1` it was above 100 µM.
As to `CC(CCC(=O)O)[C@H]1CCC2[C@@H]3CC[C@@H]4CC(O)CC[C@]4(C)C3CC[C@@]21C` (some centres not stated), the GI50 was 26 µM and the TGI turned out to be 72.4 µM.
In turn, `Nc1ccn(CCNCCn2cnc3nc(N)[nH]c(=O)c32)c(=O)n1` came in with a TGI above 100 µM.

For another experiment, the system named is SF-268 CNS. Kind of experiment: NCI anticancer screen, dose series, 48 h.
For `CCCC(C)c1cc(Cc2cc(Cl)cc(Cl)c2O)c(O)c(Cc2cc(Cl)cc(Cl)c2O)c1` (configuration not stated), the GI50 is 1.01 µM and the TGI stood at 20.7 µM.
With `C/C(=N\NS(=O)(=O)c1ccccc1)c1ccc(Cl)c(Cl)c1`, the TGI was above 100 µM.
On to `COc1ccc(/C=C2\CCCC3=C2N=C2SC(C)=NN2C3c2ccc(OC)c(OC)c2)cc1OC` (configuration not stated), for which the GI50 was 18.2 µM and the TGI was above 100 µM.
The corresponding values for `COc1ccc(-c2nn3c(-c4cc(F)c(Cl)cc4Cl)nnc3s2)cc1` are 19.7 µM and above 100 µM.
Regarding `CCCNC1=C(C(=O)OCC)C(=O)CO1`, the TGI is above 100 µM.
`O=C(NCCO)Nc1ccc(-c2nc(N3CCOCC3)c3cccn3n2)cc1`: the GI50 is 0.164 µM and the TGI is above 95.9 µM.
The corresponding values for `Cc1ccc(-c2cn3ccnc3c(-c3ccc(Cl)cc3)n2)cc1` are 0.0885 µM and 11.7 µM.
With `CC1(C)C(=NNC(=O)C[N+](C)(C)C)C(C)(C)C1=NNC(=O)C[N+](C)(C)C`, the TGI is above 100 µM.
Still for that read-out and setting: next, `Nn1c(NNC(=O)C(=O)Nc2cc(Cl)c(Cl)cc2Cl)n[nH]c1=S`: above 100 µM.
On to `COc1ccc2sc3c(NCCCN(C)C)nc4ccccc4c3c(=O)c2c1`, for which the GI50 is 1.67 µM and the TGI was determined as 3.35 µM.
Compound `NC1C[C@H](n2cc(/C=C/Br)c(=O)[nH]c2=O)C[C@@H]1CO` (some centres not stated) showed a TGI above 100 µM.
`O=c1/c(=C/c2ccccc2F)sc2nc3ccccc3n12`: the TGI is above 100 µM.
With `CC1=C(C)C(=O)c2c(cc3ccccn23)C1=O`, the TGI came to 52.8 µM.
The same measure, in the same setting: next, `Cc1ccc(N=Cc2ccc3c(c2)OCO3)cc1C`: above 100 µM.
In the case of `COC(C(=O)[O][Ge]([CH3])([CH3])[CH3])c1ccccc1` (configuration not stated), the GI50 is above 100 µM and the TGI was above 100 µM.
For the compound `O=C1/C(=C\c2c[nH]c3ccccc23)c2ccccc2N1c1c(Cl)cccc1Cl`, the GI50 is 1.6 µM and the TGI worked out at 3.59 µM.
In the same order, the values of `OC(c1cc(-c2ccccc2)nc2ccc(Cl)cc12)C1CCCCN1` (configuration not stated) are 3.06 µM and 14 µM.
Turning to `CCN(CC)c1ccc(C(=O)c2ccccc2C(=O)O)c(O)c1`, the TGI is above 100 µM.
`COc1ccc(OC)c(NC(=O)C2=C(C)NC(C)=C(C(=O)Nc3cc(OC)ccc3OC)C2c2ccccc2)c1` displayed a TGI above 100 µM.
In the case of `CC(CCC(=O)O)[C@H]1CCC2[C@@H]3CC[C@@H]4CC(O)CC[C@]4(C)C3CC[C@@]21C` (some centres not stated), the GI50 is above 100 µM and the TGI is above 100 µM.
On to `Nc1ccn(CCNCCn2cnc3nc(N)[nH]c(=O)c32)c(=O)n1`, for which the TGI is above 100 µM.

The subject of another experiment is OVCAR-5 ovarian. As to the kind of experiment: NCI anticancer screen, dose series, 48 h.
For `CCCC(C)c1cc(Cc2cc(Cl)cc(Cl)c2O)c(O)c(Cc2cc(Cl)cc(Cl)c2O)c1` (configuration not stated), the GI50 was 4.05 µM and the TGI was determined as 15 µM.
As to `C/C(=N\NS(=O)(=O)c1ccccc1)c1ccc(Cl)c(Cl)c1`, the TGI is above 100 µM.
For `COc1ccc(/C=C2\CCCC3=C2N=C2SC(C)=NN2C3c2ccc(OC)c(OC)c2)cc1OC` (configuration not stated), the GI50 was 36 µM and the TGI is above 100 µM.
In the same order, the values of `COc1ccc(-c2nn3c(-c4cc(F)c(Cl)cc4Cl)nnc3s2)cc1` are 25.5 µM and 88.9 µM.
Take `CCCNC1=C(C(=O)OCC)C(=O)CO1`: the TGI was above 100 µM.
In the case of `O=C(NCCO)Nc1ccc(-c2nc(N3CCOCC3)c3cccn3n2)cc1`, the GI50 was 0.138 µM and the TGI turned out to be 20.7 µM.
`Cc1ccc(-c2cn3ccnc3c(-c3ccc(Cl)cc3)n2)cc1`: the GI50 is 14.8 µM and the TGI was above 100 µM.
`CC1(C)C(=NNC(=O)C[N+](C)(C)C)C(C)(C)C1=NNC(=O)C[N+](C)(C)C` registered a TGI above 100 µM.
On the same count and under the same terms, in the case of `Nn1c(NNC(=O)C(=O)Nc2cc(Cl)c(Cl)cc2Cl)n[nH]c1=S` it was above 100 µM.
`COc1ccc2sc3c(NCCCN(C)C)nc4ccccc4c3c(=O)c2c1`: the GI50 is 1.76 µM and the TGI was 3.23 µM.
`O=c1/c(=C/c2ccccc2F)sc2nc3ccccc3n12` displayed a TGI above 100 µM.
On the same count and under the same terms, in the case of `CC1=C(C)C(=O)c2c(cc3ccccn23)C1=O` it was 92.6 µM; in that of `Cc1ccc(N=Cc2ccc3c(c2)OCO3)cc1C`, above 100 µM.
Regarding `COC(C(=O)[O][Ge]([CH3])([CH3])[CH3])c1ccccc1` (configuration not stated), the GI50 was above 100 µM and the TGI is above 100 µM.
As for `OC(c1cc(-c2ccccc2)nc2ccc(Cl)cc12)C1CCCCN1` (configuration not stated), the GI50 is 1.84 µM and the TGI is 4.3 µM.
`CCN(CC)c1ccc(C(=O)c2ccccc2C(=O)O)c(O)c1` yielded a TGI above 100 µM.
The same measure, in the same setting: in the case of `COc1ccc(OC)c(NC(=O)C2=C(C)NC(C)=C(C(=O)Nc3cc(OC)ccc3OC)C2c2ccccc2)c1` it was above 100 µM.
Turning to `CC(CCC(=O)O)[C@H]1CCC2[C@@H]3CC[C@@H]4CC(O)CC[C@]4(C)C3CC[C@@]21C` (some centres not stated), the GI50 was above 100 µM and the TGI is above 100 µM.
In turn, `Nc1ccn(CCNCCn2cnc3nc(N)[nH]c(=O)c32)c(=O)n1` showed a TGI above 100 µM.
